Results as given in patent US20260272907A1, “Therapeutic Tyrosine Kinase Inhibitors for Multiple Sclerosis” (Principia Biopharma Inc., priority 2022, published 2026).

Tests used:
[1] = tested on: patients with relapsing multiple sclerosis; assay: Phase 2b dose-finding study: total number of Gd-enhancing T1-hyperintense lesions by brain MRI; details: for Count of Gd-enhancing T1-hyperintense lesions, observed mean (SD): 12 weeks of treatment
Description: New T1 Gd-enhancing hyperintense and new and enlarging T2 lesions are evaluated at each visit as per the SoA (Table 1), comparing lesion count to that from the previous MRI scan. Unless specified otherwise, the baseline brain MRI is used as the reference to assess all MRI-derived endpoints. The baseline MRI is the last MRI performed before the randomization visit. Standardized endpoint evaluation is assured by central review of brain MRI scans. Blinded central review is performed for all MRI-derived endpoints. Magnetic resonance imaging reviewers are blinded to treatment assignments and to other participant data.
As it is reasonable to assume a constant rate of lesion formation over 12 weeks under placebo for total number of Gd-enhancing T1-hyperintense lesions, the same approach as that utilized for the primary endpoint is used, by using the Week 4 data in Cohort 2 as the Week 12 placebo data while accounting for the within-participant correlation. Descriptive summary statistics over time is provided for each of the 4 BTK inhibitor doses.
For each secondary endpoint, a similar negative binomial model and the MCP-Mod procedure were used. As it is reasonable to assume a constant rate of lesion formation over 12 weeks under placebo treatment, the same approach as that utilized for the primary endpoint was used, i.e., using the Week 4 data in Cohort 2 as the Week 12 placebo data while accounting for within-participant correlation. Descriptive summary statistics over time were provided for each of the 4 BTK inhibitor dose groups.

[2] = tested on: patients with relapsing multiple sclerosis; assay: Phase 2b dose-finding study: clinical laboratory tests, ECG, vital signs (PCSAs, ALT levels); format: in vivo, human
Description: Temperature, pulse rate, respiratory rate, and blood pressure are assessed. The same method for temperature measurement should be used throughout the study. Blood pressure and pulse measurements are assessed in sitting or supine position with a completely automated device. Same position measurements should be used throughout the study for the same participant. Manual techniques are used only if an automated device is not available. Caffeinated drinks to be avoided before blood pressure measurements. Blood pressure and pulse measurements should be preceded by at least 5 minutes of rest for the participant in a quiet setting without distractions (e.g., television, cell phones). Vital signs (to be taken before blood collection for laboratory tests) consist of 1 pulse, 3 blood pressure measurements (3 consecutive blood pressure readings are recorded at intervals of at least 1 minute), and respiratory rate. The average of the 3 blood pressure readings is recorded.
Single twelve-lead ECGs are obtained as outlined in the SOA (Table 1) using an ECG machine that automatically calculates the heart rate and measures PR, QRS, QT, and QTc intervals. At least one longer rhythm monitoring recording needs to be part of each ECG testing. The ECG is reviewed by a cardiologist for confirmation of abnormality and clinical evaluation. Refer to Example 1.4E for QTc withdrawal criteria and any additional QTc readings that may be necessary.
See Example 1.16 for the list of clinical laboratory tests to be performed and to the SoA (Table 1) for the timing and frequency. The Investigator will review the laboratory report, document this review, and record any clinically relevant changes occurring during the study in the AE section of the eCRF. Clinically significant abnormal laboratory findings are those that are not associated with the underlying disease, unless judged by the Investigator to be more severe than expected for the participant's condition. […] All protocol-required laboratory assessments, as defined in Example 1.16, are conducted in accordance with the laboratory manual and the SoA (Table 1). If laboratory values from non-protocol specified laboratory assessments performed at the institution's local laboratory require a change in participant management or are considered clinically significant by the Investigator (e.g., SAE or AE or dose modification), then the results are recorded in the eCRF.
The following definitions are applied to laboratory parameters, ECG, and vital sign results: • Potentially clinically significant abnormality (PCSA) values are defined as abnormal values considered medically important by the Sponsor according to predefined criteria/thresholds based on literature review and are defined by the Sponsor for clinical laboratory tests and vital signs. • Potentially clinically significant abnormality criteria determine which participants had at least 1 PCSA during the on-treatment period, taking into account all evaluations performed during the on-treatment period including unscheduled or repeated evaluations. The number of all such participants is the numerator for the on-treatment PCSA percentage
Additional tests are performed at any time during the study as determined necessary by the Investigator or required by local regulations.

[3] = tested on: patients with relapsing multiple sclerosis; assay: Long-term safety extension: T2 lesion volume change from baseline (MRI); format: in vivo, human; details: for Volume of new or enlarging T2 lesions, Mean (SD): in cm³
Description: In the current open-label extension Part B, all patients receive 60 mg/day. MRI outcomes include numbers of new Gd-enhancing and new/enlarging T2 lesions, T2 lesion volume change from baseline, slowly evolving lesions (SEL), and paramagnetic rim lesions (PRL).
The Week 0 value is from the last MRI obtained in the dose-finding study if performed within 6 weeks prior to Day 1 of the long-term safety study For some patients the Week 0 value began after a gap period ranging from 0-21 weeks. For patients where the gap period was 0 weeks, the Week 0 value began immediately after the completion of Week 16 of the dose-finding study. For patients where the gap period was greater than 6 weeks a new MRI was obtained prior to Day 1 of the long-term safety study.
If from Week 16 of the dose-finding study (Cohort 2), it is also included in Week 12. If from Week 16 of the dose-finding study (Cohort 1), it is after 4 weeks placebo run out.

[4] = 5 mg daily, after 12 weeks of treatment
[5] = 15 mg daily, after 12 weeks of treatment
[6] = 30 mg daily, after 12 weeks of treatment
[7] = 60 mg daily, after 12 weeks of treatment

SMILES: C=CC(=O)N1CCC[C@@H](n2c(=O)n(-c3ccc(Oc4ccccc4)cc3)c3c(N)nccc32)C1 [the BTK inhibitor, (R)-1-(1-acryloylpiperidin-3-yl)-4-amino-3-(4-phenoxyphenyl)-1H-imidazo[4,5-c]pyridin-2(3H)-one]
- Total Gd-enhancing T1-hyperintense lesion count, Mean [1, 4]: 1.77
- Total Gd-enhancing T1-hyperintense lesion count, Median [1, 4]: 0.00
- Count of Gd-enhancing T1-hyperintense lesions, observed mean (SD) ([1]; 5 mg once daily): 1.77 (4.10)
- Patients with 2 total Gd-enhancing T1-hyperintense lesions [1, 5]: 0 n
- Total Gd-enhancing T1-hyperintense lesion count, Mean [1, 5]: 0.87
- Total Gd-enhancing T1-hyperintense lesion count, Median [1, 5]: 0.00
- Count of Gd-enhancing T1-hyperintense lesions, observed mean (SD) ([1]; 15 mg once daily): 0.87 (1.59)
- Total Gd-enhancing T1-hyperintense lesion count, Mean [1, 6]: 1.18
- Total Gd-enhancing T1-hyperintense lesion count, Median [1, 6]: 0.00
- Count of Gd-enhancing T1-hyperintense lesions, observed mean (SD) ([1]; 30 mg once daily): 1.18 (4.87)
- Total Gd-enhancing T1-hyperintense lesion count, Mean [1, 7]: 0.29
- Total Gd-enhancing T1-hyperintense lesion count, Median [1, 7]: 0.00
- Count of Gd-enhancing T1-hyperintense lesions, observed mean (SD) ([1]; 60 mg once daily): 0.29 (0.86)
- Participants with no Gd-enhancing T1-hyperintense lesions ([1]; 60 mg, end of 12 weeks of treatment, 27 of 31 with evaluable MRI): 87.1%
- Relative reduction in total count of Gd-enhancing T1-hyperintense lesions relative to placebo ([1]; any of the doses tested (5, 15, 30, 60 mg), 12 weeks): No statistically significant relative reduction
- ALT level of the participant with AESI ([2]; 30 mg group, Week 8 visit): 105 U/L
- ALT level of the participant with AESI ([2]; 30 mg group, within 4 days after the Week 8 visit, back to normal level): 32 U/L
- ALT level of the participant with AESI ([2]; 60 mg group, Week 4 visit, ULN 34 U/L): 107 U/L
- ALT level of the participant with AESI ([2]; 60 mg group, Week 12, back to normal level): 28 U/L
- PCSAs related to vital signs, labs and ECGs: relation to dose ([2]; reported in multiple treatment groups): no dose relationship
- Volume of new or enlarging T2 lesions, Median ([3]; 5/60 mg, Week 0): 0.09 cm³
- Volume of new or enlarging T2 lesions, Mean (SD) ([3]; 5/60 mg, Week 0): 1.28 (2.57)
- Volume of new or enlarging T2 lesions, Median ([3]; 5/60 mg, Week 12): 0.2 cm³
- Volume of new or enlarging T2 lesions, Mean (SD) ([3]; 5/60 mg, Week 12): 1.05 (1.70)
- Volume of new or enlarging T2 lesions, Median ([3]; 15/60 mg, Week 0): 0.08 cm³
- Volume of new or enlarging T2 lesions, Mean (SD) ([3]; 15/60 mg, Week 0): 0.72 (1.86)
- Volume of new or enlarging T2 lesions, Median ([3]; 15/60 mg, Week 12): 0.2 cm³
- Volume of new or enlarging T2 lesions, Mean (SD) ([3]; 15/60 mg, Week 12): 1.09 (1.61)
- Volume of new or enlarging T2 lesions, Median ([3]; 30/60 mg, Week 0): 0 cm³
- Volume of new or enlarging T2 lesions, Mean (SD) ([3]; 30/60 mg, Week 0): 0.48 (1.59)
- Volume of new or enlarging T2 lesions, Median ([3]; 30/60 mg, Week 12): 0.04 cm³
- Volume of new or enlarging T2 lesions, Mean (SD) ([3]; 30/60 mg, Week 12): 0.69 (1.30)
- T2 lesion volume change, W96 vs baseline, mean±SD ([3]; 60/60 mg arm): 0.38±2.11 cm3
- Volume of new or enlarging T2 lesions, Median ([3]; 60/60 mg, Week 0): 0 cm³
- Volume of new or enlarging T2 lesions, Mean (SD) ([3]; 60/60 mg, Week 0): 0.18 (0.38)
- Volume of new or enlarging T2 lesions, Median ([3]; 60/60 mg, Week 12): 0.06 cm³
- Volume of new or enlarging T2 lesions, Mean (SD) ([3]; 60/60 mg, Week 12): 0.26 (0.48)
- Volume of new or enlarging T2 lesions, Median ([3]; All (N = 125), Week 0): 0 cm³
- Volume of new or enlarging T2 lesions, Mean (SD) ([3]; All (N = 125), Week 0): 0.67 (1.81)
- Volume of new or enlarging T2 lesions, Median ([3]; All (N = 125), Week 12): 0.12 cm³
- Volume of new or enlarging T2 lesions, Mean (SD) ([3]; All (N = 125), Week 12): 0.80 (1.39)
